Converted amounts (≈) assume the structure as drawn.
Tests used:
Test in all cases: Broth microdilution MIC, clinical isolate panel
Type in all cases: cell-based
[1] = system: Escherichia coli isolates (n = 101); conditions: Escherichia coli (n = 101)
Method: (§1) Comparator antibiotics were supplied by Micromyx, and stock solutions were prepared on the first day of testing using solvents recommended by CLSI (1). Stock solutions of all compounds were made at 40× the final testing concentration and stored at −80° C. prior to testing. Information regarding compound source, catalog and lot number, testing concentrations and drug diluent for the comparators and test agent are detailed below in Table 3.
(§2) The test organisms evaluated in this study consisted of clinical isolates from the Micromyx Repository and reference isolates from the American Type Culture Collection (ATCC; Manassas, Va.). The clinical isolates were obtained from USA hospitals. Upon initial receipt at Micromyx, the organisms were sub-cultured onto an appropriate agar medium. Following incubation, colonies were harvested from these plates and cell suspensions prepared and frozen at −80° C. with a cryoprotectant. Prior to testing, the isolates were streaked from frozen vials onto Trypticase Soy Agar with 5% sheep blood (Becton Dickenson [BD]; Sparks, Md.; Lot Nos. 7173618, 7166759, 7208688, 72144895, 7228505 and Remel Lenexa, Kans. Lot No. 212574). Plates were incubated at 35° C. overnight.
(§3) Mueller Hinton II broth (MHB II; BD; Lot Nos. 6258541 and 7143896) was used for MIC testing of aerobic organisms.
(§4) MIC values were determined using a broth microdilution procedure described by CLSI (1, 3). Automated liquid handlers (Multidrop 384, Labsystems, Helsinki, Finland; Biomek 2000 and Biomek FX, Beckman Coulter, Fullerton Calif.) were used to conduct serial dilutions and liquid transfers.
(§5) To prepare the drug mother plates, which would provide the serial drug dilutions for the replicate daughter plates, the wells of columns 2-12 of standard 96-well microdilution plates (Costar 3795) were filled with 150 μl of the designated diluent for each row of drug. The test articles and comparator compounds (300 μl at 40× the highest concentration to be tested) were dispensed into the appropriate wells in column 1. The Biomek 2000 was then used to make 2-fold serial dilutions in the mother plates from column 1 through column 11. The wells of Column 12 contained no drug and served as the organism growth control wells for the assay.
(§6) The daughter plates were loaded with 185 μL per well of MHB II using the Multidrop 384. The daughter plates were completed on the Biomek FX instrument which transferred 5 µL of drug solution from each well of a mother plate to the corresponding well of each daughter plate in a single step. A standardized inoculum of each test organism was prepared per CLSI methods (1). The inoculum for each organism was dispensed into sterile reservoirs divided by length (Beckman Coulter), and the Biomek 2000 was used to inoculate the plates. Daughter plates were placed on the Biomek 2000 work surface in reverse orientation so that inoculation took place from low to high drug concentration.
(§7) Plates were stacked 3-4 high, covered with a lid on the top plate, placed in plastic bags, and incubated at 35° C. for 16 to 20 hrs. Following incubation, the microplates were removed from the incubator and viewed from the bottom using a plate viewer. […] The MIC was read and recorded as the lowest concentration of drug that inhibited visible growth of the organism.
(§8) Clinical breakpoints to determine percent resistance within a given organism group were obtained from CLSI (3), with the exception of colistin for K. pneumoniae, Enterobacter spp., and E. coli, which are only available from EUCAST.

[2] = system: Pseudomonas aeruginosa isolates (n = 109); conditions: Pseudomonas aeruginosa
Method: as §1, §2, §3, §4, §5, §6, §7, §8

[3] = system: Acinetobacter spp. isolates (n = 104); conditions: Acinetobacter spp. (n = 104)
Method: as §1, §2, §3, §4, §5, §6, §7, §8

[4] = system: Klebsiella pneumoniae isolates (n = 101); conditions: Klebsiella pneumoniae (n = 101)
Method: as §1, §2, §3, §4, §5, §6, §7, §8

[5] = system: Staphylococcus aureus isolates (n = 104); conditions: Staphylococcus aureus (n = 104), all methicillin-resistant
Method: as §1, §2, §3, §4, §5, §6, §7, §8

[6] = system: Enterococcus faecium isolates (n = 104); conditions: Enterococcus faecium (n = 104)
Method: as §1, §2, §3, §4, §5, §6, §7, §8

MIC90 [5] | MIC range [5] | MIC ([5]; read-out: Mode (MIC)) | MIC50 [6] | MIC90 [6] | MIC ([6]; read-out: Mode (MIC)) | Structure (SMILES) | MIC50 [1] | MIC ([1]; read-out: Mode (MIC)) | MIC50 [2] | MIC ([2]; read-out: Mode (MIC)) | MIC50 [3] | % R (percent of isolates resistant, clinical breakpoints) [4] | MIC50 [4] | MIC50 [5]
– | – | – | – | – | – | CC(C)(O/N=C(\C(=O)N[C@@H]1C(=O)N2C(C(=O)[O-])=C(C[n+]3ccccc3)CS[C@H]12)c1csc(N)n1)C(=O)O [Ceftazidime] | 0.5 µg/mL (≈ 0.915 µM) | 0.25 µg/mL (≈ 0.457 µM) | 4 µg/mL (≈ 7.32 µM) | 2 µg/mL (≈ 3.66 µM) | > 32 µg/mL | Over 80% | > 32 µg/mL | –
– | – | – | – | – | – | CCC[C@@H]1C[C@@H](C(=O)N[C@@H]([C@H]2O[C@H](SC)[C@H](O)[C@@H](O)[C@H]2O)[C@H](C)Cl)N(C)C1 [Clindamycin] | – | – | – | – | – | – | – | 0.12 µg/mL (≈ 0.282 µM)
1 µg/mL (≈ 0.617 µM) | 0.25 to 4 µg/mL | 0.5 µg/mL (≈ 0.309 µM) | 4 µg/mL (≈ 2.47 µM) | 8 µg/mL (≈ 4.94 µM) | 2 µg/mL (≈ 1.23 µM) | CCCCCCCCCC(=O)N[C@@H](Cc1c[nH]c2ccccc12)C(=O)N[C@H](CC(N)=O)C(=O)N[C@@H](CC(=O)O)C(=O)N[C@@H]1C(=O)NCC(=O)N[C@@H](CCCN)C(=O)N[C@@H](CC(=O)O)C(=O)N[C@H](C)C(=O)N[C@@H](CC(=O)O)C(=O)NCC(=O)N[C@H](CO)C(=O)N[C@@H]([C@H](C)CC(=O)O)C(=O)N[C@@H](CC(=O)c2ccccc2N)C(=O)O[C@@H]1C [Daptomycin] | – | – | – | – | – | – | – | 0.5 µg/mL (≈ 0.309 µM)

— patent publication US20200071361A1, “ENGINEERED ANTIMICROBIAL AMPHIPHILIC PEPTIDES AND METHODS OF USE” (priority 2017, published 2020)
